Experimental findings from US10562869B2, “Oxadiazole compounds” (REMYND NV, priority 2014, dated 2020) are described below.

In the test the test system is M17_3SYN cells. Kind of test: Paraquat-induced cytotoxicity (LDH) in α-synuclein over-expressing M17_3SYN neuroblastoma cells. The format is cell-based, human. The conditions noted are these: Homo sapiens, Neuroblastoma cell, 48 h, toxicity inhibition (LDH) in M17_3SYN cells challenged with 6 mM paraquat, 2 days; read-out: SYN EC50. The text has this: A α-synuclein expression plasmid was constructed by subcloning the NcoI/XhoI fragment from 212T-SYN(WT) (Griffioen et al., Biochem Biophys Acta (2006) 1762(3):312-318) containing the cDNA of human wild type α-synuclein correspondingly into a standard mammalian expression vector pcDNA3.1 resulting in plasmid pcDNA3.1-SYNwt. Plasmids pcDNA3.1 and pcDNA3.1-SYNwt were transfected into human neuroblastoma cells (BE-M17; ATCC No. CRL-2267™) using lipofectamine reagent and subsequently, independent clonal cell lines with the plasmids stably integrated into the genome were selected by antibiotic resistance selection (Geneticin (G418)), resulting in cell lines M17.pcDNA3 and M17_3SYN. Overexpression of α-synuclein in the M17_3SYN cell line was confirmed by Western blot analysis.
Due to the high levels of α-synuclein, M17_3SYN cells were sensitive to paraquat, a well-known risk factor Parkinson's disease and of synuclein-dependent neuronal degeneration. Cytotoxicity of cells was measured by quantification of lactate dehydrogenase (LDH) levels. In dead cells, LDH leaked out of the cells into the medium due to a loss of plasma-membrane integrity.
[…], primary pre-cultures of M17.pcDNA3 (as possible control) and M17_3SYN cells were prepared, starting from a stock culture, at a density of 20.000-40.000 cells/cm2 in culture medium (Opti-MEM® Reduced Serum Medium with Phenol Red (Invitrogen, Cat. 31985-047) supplemented with 10% FCS, 1 mM sodium pyruvate, 1×NEAA, 500 μg/ml G418 and 0.5×antibiotic/antimycotic (ABAM)). 3 days later these primary pre-cultures were used as a starting point to make secondary pre-cultures at a density of 50.000-100.000 cells/cm^2. At the day of the experiment these secondary precultures were diluted to ˜0.5·10^6 cells/ml in detection medium (Opti-MEM® Reduced-Serum Medium without Phenol Red (Invitrogen, Cat. 11085-021) supplemented with 10% FCS, 1 mM sodium pyruvate, 1×NEAA, 500 μg/ml G418 and 0.5×ABAM) and 60 μL of this suspension was dispensed per well into a 96-well microtiter plate. After 3 hours of incubation at 37° C./5% CO2 an equal volume of detection medium containing a final concentration of 6 mM Paraquat was added and subsequently incubated for 2 days at 37° C./5% CO2. Then LDH activity was determined using the Promega Cytotox 96 Non-Radioactive cytotoxicity assay (Promega, Cat. G1780), according to the manufacturer's instructions. Cytotoxicity was defined as the ratio of LDH relative to the total LDH in the cells and supernatant.
The assay described above using the M17_3SYN cell line allowed screening compounds for their ability to decrease cytotoxicity in PQ-challenged cells. Compounds of the invention were tested for their ability to decrease toxicity at different concentrations, ranging from low non-effective concentrations to high effective concentrations. Afterwards, a dose-dependent inhibition curve was used to calculate the EC50. A compound was considered to be active in this test when it inhibited toxicity by more than 20% relative to untreated M17_3SYN cells at a concentration of 10 μM or lower.

A word on the EC50: it is the midpoint of the concentration-response curve.

For `CSc1ccc(S(=O)(=O)N2CCN(c3nc(C(C)(C)c4cccc(Cl)c4)no3)CC2)cc1` [Cmpd155, 1-{3-[1-(3-Chloro-phenyl)-1-methyl-ethyl]-[1,2,4]oxadiazol-5-yl}-4-(4-methylsulfanyl-benzenesulfonyl)-piperazine], the EC50 is 2 nM. Turning to `CC(=O)Nc1ccc(S(=O)(=O)N2CCN(c3nc(Cc4cccc(F)c4)no3)CC2)cc1` [Cmpd086, N-(4-{4-[3-(3-Fluoro-benzyl)-[1,2,4]oxadiazol-5-yl]-piperazine-1-sulfonyl}-phenyl)-acetamide], the EC50 worked out at 522 nM. In the case of `O=S(=O)(c1ccc(OC(F)F)cc1)N1CCN(c2nc(CC3CC3)no2)CC1` [Cmpd160, 3-(Cyclopropylmethyl)-5-(4-((4-(difluoromethoxy)phenyl)sulfonyl)piperazin-1-yl)-1,2,4-oxadiazole], the EC50 turned out to be 148 nM. As to `COc1ccc(S(=O)(=O)N2CCN(c3nc(C(F)(F)c4ccccc4)no3)CC2)cc1` [Cmpd156, 1-[3-(Difluoro-phenyl-methyl)-[1,2,4]oxadiazol-5-yl]-4-(4-methoxy-benzenesulfonyl)-piperazine], the EC50 came to 5 nM.

In the case of `COc1ccc(S(=O)(=O)N2CCN(c3nc(Cc4cccc(F)c4)no3)CC2)cc1` [Cmpd084, 1-[3-(3-Fluoro-benzyl)-[1,2,4]oxadiazol-5-yl]-4-(4-methoxy-benzenesulfonyl)-piperazine], the EC50 was found to be 5 nM. `CCOc1ccc(S(=O)(=O)N2CCN(c3nc(Cc4ccccc4)no3)CC2)cc1` [Cmpd038, 1-(3-Benzyl-[1,2,4]oxadiazol-5-yl)-4-(4-ethoxy-benzenesulfonyl)-piperazine]: the EC50 amounted to 13 nM. Next, `COc1ccc(S(=O)(=O)N2CCN(c3nc(Cc4ccccc4)no3)CC2)cc1` [Cmpd037, 1-(3-Benzyl-[1,2,4]oxadiazol-5-yl)-4-(4-methoxy-benzenesulfonyl)-piperazine]: 3 nM. For the compound `CCOc1ccc(S(=O)(=O)N2CCN(c3nc(C(F)(F)c4ccc(F)cc4)no3)CC2)cc1` [Cmpd147, 1-{3-[Difluoro-(4-fluoro-phenyl)-methyl]-[1,2,4]oxadiazol-5-yl}-4-(4-ethoxy-benzenesulfonyl)-piperazine], the EC50 was determined as 22 nM.

For the compound `COc1ccc(S(=O)(=O)N2CCN(c3nc(CC4CC4)no3)CC2)cc1` [Cmpd159, 3-(Cyclopropylmethyl)-5-(4-((4-methoxyphenyl)sulfonyl)piperazin-1-yl)-1,2,4-oxadiazole], the EC50 came out at 95 nM. As to `COc1ccc(S(=O)(=O)N2CCN(c3nc(C4CCCCC4)no3)CC2)cc1` [Cmpd210, 3-Cyclohexyl-5-(4-((4-methoxyphenyl)sulfonyl)piperazin-1-yl)-1,2,4-oxadiazole], the EC50 was found to be 327 nM. For the compound `CSc1ccc(S(=O)(=O)N2CCN(c3nc(CCC(F)(F)F)no3)CC2)cc1` [Cmpd172, 5-(4-((4-(Methylthio)phenyl)sulfonyl)piperazin-1-yl)-3-(3,3,3-trifluoropropyl)-1,2,4-oxadiazole], the concentration giving a half-maximal response (EC50) is 166 nM. Consider `COc1ccc(S(=O)(=O)N2CCN(c3nc(Cc4cccc(Cl)c4)no3)CC2)cc1` [Cmpd072, 1-[3-(3-Chloro-benzyl)-[1,2,4]oxadiazol-5-yl]-4-(4-methoxy-benzenesulfonyl)-piperazine], for which the EC50 stood at 3 nM. As for `O=S(=O)(c1ccc(OC(F)F)cc1)N1CCN(c2nc(CCC(F)(F)F)no2)CC1` [Cmpd173, 5-(4-((4-(Difluoromethoxy)phenyl)sulfonyl)piperazin-1-yl)-3-(3,3,3-trifluoropropyl)-1,2,4-oxadiazole], the EC50 was determined as 438 nM. As to `CCC(c1ccccc1)c1noc(N2CCN(S(=O)(=O)c3ccc(OC)cc3)CC2)n1` (stereo not drawn) [Cmpd044, 5-(4-((4-Methoxyphenyl)sulfonyl)piperazin-1-yl)-3-(1-phenylpropyl)-1,2,4-oxadiazole], the EC50 was determined as 15 nM.

Turning to `O=S(=O)(c1ccc(OC(F)F)cc1)N1CCN(c2nc(C(F)(F)c3ccc(Cl)cc3)no2)CC1` [Cmpd144, 1-{3-[(4-Chloro-phenyl)-difluoro-methyl]-[1,2,4]oxadiazol-5-yl}-4-(4-difluoromethoxy-benzenesulfonyl)-piperazine], the EC50 was 145 nM.
